Consider two compounds from patent US20220213092A1, “BICYCLIC PYRAZOLE BRUTON'S TYROSINE KINASE INHIBITORS” (AbbVie Inc., priority 2020, published 2022).

pIC50: −log10 of the molar value. Read-outs that look alike come from different tables or passages of the source.

Assay [1] addresses T1, TEC (Homo sapiens, UniProt P42680).
T1 sequence (P42680 1-631): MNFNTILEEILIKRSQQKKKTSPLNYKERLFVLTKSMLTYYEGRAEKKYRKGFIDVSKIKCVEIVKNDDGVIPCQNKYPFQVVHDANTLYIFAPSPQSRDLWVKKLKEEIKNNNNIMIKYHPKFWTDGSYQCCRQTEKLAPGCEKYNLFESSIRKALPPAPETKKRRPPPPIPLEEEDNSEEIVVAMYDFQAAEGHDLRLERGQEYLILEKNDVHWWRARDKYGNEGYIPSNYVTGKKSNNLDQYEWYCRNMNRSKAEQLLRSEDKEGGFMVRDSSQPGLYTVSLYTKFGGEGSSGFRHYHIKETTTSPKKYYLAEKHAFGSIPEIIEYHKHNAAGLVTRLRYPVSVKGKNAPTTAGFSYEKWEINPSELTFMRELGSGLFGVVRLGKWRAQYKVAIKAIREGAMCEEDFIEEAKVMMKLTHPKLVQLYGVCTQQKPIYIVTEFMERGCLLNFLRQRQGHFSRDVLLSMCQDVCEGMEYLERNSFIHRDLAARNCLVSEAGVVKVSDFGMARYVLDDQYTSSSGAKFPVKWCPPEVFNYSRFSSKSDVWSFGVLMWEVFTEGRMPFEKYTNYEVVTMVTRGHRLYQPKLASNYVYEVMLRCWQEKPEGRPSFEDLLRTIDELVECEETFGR
Put plainly: Other kinase MSA: TEC. It counts as biochemical. The method, then: (§1) Kinase activity, unless otherwise indicated, was measured in vitro using an electrophoretic mobility shift assay (MSA). The phosphorylation of a peptide substrate by BTK and other kinases was measured. The kinase reactions were assembled in a total volume of 25 μL per well in 384 well plates. The following was added to each well: compound buffer (or control); enzyme buffer; and substrate buffer, as further described below. […]
(§2) Enzyme and compound/inhibitor were optionally pre-incubated. […] The kinase activity for the kinases in Table 3 were measured at 3 hours incubation time, except that in the case of MAP2K1 and MAP2K2 assay, pre-activation of ERK was done for 30 min with 6 μM of ATP, and then the detection of activated ERK in the presence of compounds was done after 60 minutes of incubation.
(§3) The terminated reactions were analyzed using a 12 channel LABCHIP® 3000 microfluidic detection instrument (available from Caliper Life Sciences, Waltham, Mass.). […] As substrate and product peptides were separated, two peaks of fluorescence were observed. Change in the relative fluorescence intensity of the substrate and product peaks was the parameter measured, reflecting enzyme activity. […] Capillary electrophoregrams (RDA acquisition files) were analyzed using HTS Well Analyzer software (available from Caliper Life Sciences, Waltham, Mass.). […]

In assay [2] the target is MAP2K2 (Homo sapiens, UniProt P36507). Put plainly: Other kinase MSA: MAP2K2. It counts as biochemical. As to conditions: 30 μM ATP, ERKtide substrate; pre-activation of ERK 30 min, detection after 60 minutes; read-out: IC50, Enzyme MAP2K2. As for the experimental part:
as §1, §2, §3

Chain of MAP2K2 (P36507 whole entry, species assumed): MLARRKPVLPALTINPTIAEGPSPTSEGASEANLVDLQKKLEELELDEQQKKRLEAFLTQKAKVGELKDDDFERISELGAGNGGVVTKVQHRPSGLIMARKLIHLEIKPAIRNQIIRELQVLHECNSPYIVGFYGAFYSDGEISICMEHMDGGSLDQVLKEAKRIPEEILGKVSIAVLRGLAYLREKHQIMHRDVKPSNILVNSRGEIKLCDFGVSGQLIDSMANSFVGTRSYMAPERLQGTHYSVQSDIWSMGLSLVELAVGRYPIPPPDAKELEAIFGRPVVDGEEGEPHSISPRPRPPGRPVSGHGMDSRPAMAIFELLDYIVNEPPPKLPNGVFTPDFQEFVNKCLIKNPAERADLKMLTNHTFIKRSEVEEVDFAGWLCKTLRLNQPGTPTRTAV

Usually pIC50 stands for the IC50 on a negative log10 scale, so that one unit is a factor of ten. Consider `C=CC(=O)N1CCC([C@@H]2CCNc3c(C(N)=O)c(-c4ccc(Oc5ccccc5)cc4)nn32)CC1` [Compound A, reference compound], for which the pIC50 in assay [1] (50 μM ATP, SRCtide substrate, 3 hours, read-out: IC50, Enzyme TEC) was 9.10; in assay [2] it was 7.12.

As to `C=CC(=O)N1CCN([C@@H]2CCNc3c2nn(-c2ccc(Oc4ccccc4)cc2)c3C(N)=O)CC1` [Example 6, (7R)-2-(4-phenoxyphenyl)-7-[4-(prop-2-enoyl)piperazin-1-yl]-4,5,6,7-tetrahydro-2H-pyrazolo[4,3-b]pyridine-3-carboxamide], the pIC50 was 7.83 in assay [1] and 5.11 in assay [2].
